Target: ROCK2 (human) (UniProt O75116)
Experiment: Inhibition of ROCK2 Kinase Activity

ROCK2 (human), sequence (O75116 whole entry, looked up): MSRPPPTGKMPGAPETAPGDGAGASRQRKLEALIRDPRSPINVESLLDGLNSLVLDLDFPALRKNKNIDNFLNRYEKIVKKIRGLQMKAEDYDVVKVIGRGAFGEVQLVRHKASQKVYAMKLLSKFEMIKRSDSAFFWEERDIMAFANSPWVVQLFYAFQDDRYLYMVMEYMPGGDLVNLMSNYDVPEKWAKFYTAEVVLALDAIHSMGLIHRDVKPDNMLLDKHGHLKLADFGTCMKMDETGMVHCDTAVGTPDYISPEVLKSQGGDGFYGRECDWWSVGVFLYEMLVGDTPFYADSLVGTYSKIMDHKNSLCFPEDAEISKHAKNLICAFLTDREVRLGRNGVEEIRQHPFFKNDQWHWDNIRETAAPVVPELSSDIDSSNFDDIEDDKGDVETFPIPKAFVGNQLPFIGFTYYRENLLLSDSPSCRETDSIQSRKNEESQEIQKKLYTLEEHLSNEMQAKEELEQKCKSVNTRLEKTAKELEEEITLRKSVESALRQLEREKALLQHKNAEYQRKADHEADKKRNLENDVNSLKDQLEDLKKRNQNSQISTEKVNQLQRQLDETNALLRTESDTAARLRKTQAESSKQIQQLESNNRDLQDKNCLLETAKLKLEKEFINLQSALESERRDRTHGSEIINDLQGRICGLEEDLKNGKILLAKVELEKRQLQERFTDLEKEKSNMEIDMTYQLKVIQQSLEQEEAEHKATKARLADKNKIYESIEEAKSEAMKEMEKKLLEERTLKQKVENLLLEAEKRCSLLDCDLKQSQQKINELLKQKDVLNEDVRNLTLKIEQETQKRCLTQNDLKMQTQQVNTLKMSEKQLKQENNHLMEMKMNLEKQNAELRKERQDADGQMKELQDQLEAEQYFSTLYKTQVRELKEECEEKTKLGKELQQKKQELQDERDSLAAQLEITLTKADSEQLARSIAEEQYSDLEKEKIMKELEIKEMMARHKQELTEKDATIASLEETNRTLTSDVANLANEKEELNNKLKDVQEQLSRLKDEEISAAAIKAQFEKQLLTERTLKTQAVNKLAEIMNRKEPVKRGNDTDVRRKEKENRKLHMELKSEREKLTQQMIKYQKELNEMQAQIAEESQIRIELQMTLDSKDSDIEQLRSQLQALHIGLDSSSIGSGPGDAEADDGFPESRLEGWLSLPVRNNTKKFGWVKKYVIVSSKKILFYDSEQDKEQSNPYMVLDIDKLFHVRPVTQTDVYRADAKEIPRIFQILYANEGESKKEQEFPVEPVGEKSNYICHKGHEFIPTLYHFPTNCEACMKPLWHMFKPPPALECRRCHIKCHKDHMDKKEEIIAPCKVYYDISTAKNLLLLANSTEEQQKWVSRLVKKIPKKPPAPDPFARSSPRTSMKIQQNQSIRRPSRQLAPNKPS

| Structure (SMILES) | IC50 |
| --- | --- |
| NC(c1ccc(C(=O)Nc2ccncc2)cc1)C1CCCN1C(=O)Cc1c(Cl)cccc1Cl (stereo unspecified) | 0.5 to 5 µM |
| COc1ccccc1CC(=O)NCC(N)c1ccc(C(=O)Nc2ccncc2)cc1 (stereo unspecified) | 0.5 to 5 µM |
| NC(CNC(=O)c1ccc(Cl)cc1)c1ccc(C(=O)Nc2ccncc2)cc1 (stereo unspecified) | 0.5 to 5 µM |
| N#CCCN(C(=O)CC(N)c1ccc(C(=O)Nc2ccncc2)cc1)C1CC1 (stereo unspecified) | 0.5 to 5 µM |
| NC(CNC(=O)Cc1ccc(F)c(F)c1)c1ccc(C(=O)Nc2ccncc2)cc1 (stereo unspecified) | 0.05 to 0.5 µM |
| CC(C)(C(=O)NCC(N)c1ccc(C(=O)Nc2ccncc2)cc1)c1ccc(Cl)c(Cl)c1 (stereo unspecified) | 0.05 to 0.5 µM |
| NC(CNC(=O)c1ccc(Oc2ccccc2)cc1)c1ccc(C(=O)Nc2ccncc2)cc1 (stereo unspecified) | 0.5 to 5 µM |
| COc1cc(Br)ccc1CCNC(=O)CC(N)c1ccc(C(=O)Nc2ccncc2)cc1 (stereo unspecified) | 0.05 to 0.5 µM |
| COc1cccc(CC(=O)NCC(N)c2ccc(C(=O)Nc3ccncc3)cc2)c1 (stereo unspecified) | 0.05 to 0.5 µM |
| Cc1ccccc1CC(=O)N(C)CC(N)c1ccc(C(=O)Nc2ccncc2)cc1 (stereo unspecified) | 0.5 to 5 µM |
| COc1ccc(CC(=O)N(C)CC(N)c2ccc(C(=O)Nc3ccncc3)cc2)cc1F (stereo unspecified) | 0.5 to 5 µM |
| Cc1cccc(CN2CCC(NC(=O)CC(N)c3ccc(C(=O)Nc4ccncc4)cc3)CC2)c1 (stereo unspecified) | 0.05 to 0.5 µM |
| CC(C)(C)ON=Cc1cccc(C(=O)NCC(N)c2ccc(C(=O)Nc3ccncc3)cc2)c1 (stereo unspecified) | 0.5 to 5 µM |
| CN(CCc1ccccc1)C(=O)CC(N)c1ccc(C(=O)Nc2ccncc2)cc1 (stereo unspecified) | 0.05 to 0.5 µM |
| COc1cccc(OC)c1CNC(=O)CC(N)c1ccc(C(=O)Nc2ccncc2)cc1 (stereo unspecified) | 0.05 to 0.5 µM |
| N#Cc1ccc(C(=O)NCC(N)c2ccc(C(=O)Nc3ccncc3)cc2)cc1 (stereo unspecified) | 0.5 to 5 µM |
| NC(c1ccc(C(=O)Nc2ccncc2)cc1)C1CCCN1C(=O)Cc1cccc(F)c1 (stereo unspecified) | 0.5 to 5 µM |
| NC(CNC(=O)Cc1csc(Nc2ccccc2)n1)c1ccc(C(=O)Nc2ccncc2)cc1 (stereo unspecified) | 0.5 to 5 µM |
| NC(CC(=O)NCc1ccc2c(c1)OCO2)c1ccc(C(=O)Nc2ccncc2)cc1 (stereo unspecified) | 0.05 to 0.5 µM |
| COc1cccc(CC(=O)N(C)CC(N)c2ccc(C(=O)Nc3ccncc3)cc2)c1 (stereo unspecified) | 0.05 to 0.5 µM |
| COc1ccc(CCNC(=O)CC(N)c2ccc(C(=O)Nc3ccncc3)cc2)cc1 (stereo unspecified) | 0.05 to 0.5 µM |
| NC(CNC(=O)Nc1ccc(F)cc1)c1ccc(C(=O)Nc2ccncc2)cc1 (stereo unspecified) | 0.05 to 0.5 µM |
| CC1CCCC(C(=O)NCC(N)c2ccc(C(=O)Nc3ccncc3)cc2)C1 (stereo unspecified) | 0.5 to 5 µM |
| Cc1ccccc1C(=O)NCC(N)c1ccc(C(=O)Nc2ccncc2)cc1 (stereo unspecified) | 0.5 to 5 µM |
| CN(CC(N)c1ccc(C(=O)Nc2ccncc2)cc1)C(=O)Cc1cccc(Cl)c1 (stereo unspecified) | 0.5 to 5 µM |
| NC(CNC(=O)C1(c2ccc(Cl)cc2F)CC1)c1ccc(C(=O)Nc2ccncc2)cc1 (stereo unspecified) | 0.05 to 0.5 µM |

| Structure (SMILES) | IC50 |
| --- | --- |
| CC(C)(C(=O)N1CCCC1C(N)c1ccc(C(=O)Nc2ccncc2)cc1)c1cccs1 (stereo unspecified) | 0.5 to 5 µM |
| N[C@@H](CC(=O)NCc1ccc(F)cc1)c1ccc(C(=O)Nc2ccncc2)cc1 | 0.05 to 0.5 µM |
| CN(CC(N)c1ccc(C(=O)Nc2ccncc2)cc1)C(=O)Cc1ccc(Cl)cc1F (stereo unspecified) | 0.5 to 5 µM |
| NC(CC(=O)NCC1CC1)c1ccc(C(=O)Nc2ccncc2)cc1 (stereo unspecified) | 0.05 to 0.5 µM |
| CN(CC(N)c1ccc(C(=O)Nc2ccncc2)cc1)C(=O)Cc1ccccc1F (stereo unspecified) | 0.5 to 5 µM |
| CCSCC(=O)NCC(N)c1ccc(C(=O)Nc2ccncc2)cc1 (stereo unspecified) | 0.05 to 0.5 µM |
| NC(c1ccc(C(=O)Nc2ccncc2)cc1)C1CCCN1C(=O)C1CCOc2ccc(Cl)cc21 (stereo unspecified) | 0.5 to 5 µM |
| COc1ccc(C2(C(=O)NCC(N)c3ccc(C(=O)Nc4ccncc4)cc3)CCCC2)cc1 (stereo unspecified) | 0.05 to 0.5 µM |
| NC(CNC(=O)c1ccc(=O)[nH]n1)c1ccc(C(=O)Nc2ccncc2)cc1 (stereo unspecified) | 0.5 to 5 µM |
| COCC(=O)NCC(N)c1ccc(C(=O)Nc2ccncc2)cc1 (stereo unspecified) | 0.5 to 5 µM |
| NC(c1ccc(C(=O)Nc2ccncc2)cc1)C1CCCN1C(=O)C1(c2ccc(F)cc2F)CC1 (stereo unspecified) | 0.5 to 5 µM |
| NC(CNC(=O)Cc1ccc2c(c1)OCO2)c1ccc(C(=O)Nc2ccncc2)cc1 (stereo unspecified) | 0.05 to 0.5 µM |
| COCC(C)NC(=O)CC(N)c1ccc(C(=O)Nc2ccncc2)cc1 (stereo unspecified) | 0.05 to 0.5 µM |
| NC(CNC(=S)Nc1ccc(C(F)(F)F)cc1)c1ccc(C(=O)Nc2ccncc2)cc1 (stereo unspecified) | 0.5 to 5 µM |
| NC(CNC(=O)C1CCOC1)c1ccc(C(=O)Nc2ccncc2)cc1 (stereo unspecified) | 0.5 to 5 µM |
| NC(CC(=O)NC1c2ccccc2-c2ccccc21)c1ccc(C(=O)Nc2ccncc2)cc1 (stereo unspecified) | 0.05 to 0.5 µM |
| NC(CNC(=O)c1cccc(Cn2cccn2)c1)c1ccc(C(=O)Nc2ccncc2)cc1 (stereo unspecified) | 0.5 to 5 µM |
| NC(CNC(=O)C1(c2ccccc2)CC1)c1ccc(C(=O)Nc2ccncc2)cc1 (stereo unspecified) | 0.5 to 5 µM |
| NC(c1ccc(C(=O)Nc2ccncc2)cc1)C1CCCN1C(=O)Cc1ccc(C(F)(F)F)cc1 (stereo unspecified) | 0.5 to 5 µM |
| NC(CNC(=O)C1CCSc2ccccc21)c1ccc(C(=O)Nc2ccncc2)cc1 (stereo unspecified) | 0.05 to 0.5 µM |
| Cc1ccc(C(=O)NCC(N)c2ccc(C(=O)Nc3ccncc3)cc2)s1 (stereo unspecified) | 0.5 to 5 µM |
| NC(CC(=O)NCc1ccc(Cl)cc1Cl)c1ccc(C(=O)Nc2ccncc2)cc1 (stereo unspecified) | 0.05 to 0.5 µM |
| COC1CCC(C(=O)NCC(N)c2ccc(C(=O)Nc3ccncc3)cc2)CC1 (stereo unspecified) | 0.5 to 5 µM |
| NC(CC(=O)NCc1ccc(F)c(C(F)(F)F)c1)c1ccc(C(=O)Nc2ccncc2)cc1 (stereo unspecified) | 0.05 to 0.5 µM |
| CN(CC(N)c1ccc(C(=O)Nc2ccncc2)cc1)C(=O)C1CCCc2sccc21 (stereo unspecified) | 0.5 to 5 µM |
| NC(c1ccc(C(=O)Nc2ccncc2)cc1)C1CCCN1C(=O)C1(c2ccc(F)c(F)c2)CCC1 (stereo unspecified) | 0.5 to 5 µM |

| Structure (SMILES) | IC50 |
| --- | --- |
| NC(CNC(=O)C1(c2ccc(F)cc2F)CC1)c1ccc(C(=O)Nc2ccncc2)cc1 (stereo unspecified) | 0.05 to 0.5 µM |
| CC(C)(C(=O)NCC(N)c1ccc(C(=O)Nc2ccncc2)cc1)c1cccs1 (stereo unspecified) | 0.05 to 0.5 µM |
| NC(CNC(=O)Cc1ccc(-c2ccccc2)cc1)c1ccc(C(=O)Nc2ccncc2)cc1 (stereo unspecified) | 0.5 to 5 µM |
| NC(c1ccc(C(=O)Nc2ccncc2)cc1)C1CCCN1C(=O)C1CCCCc2ccc(F)cc21 (stereo unspecified) | 5 to 50 µM |
| NC(CC(=O)NC1CCCCC1)c1ccc(C(=O)Nc2ccncc2)cc1 (stereo unspecified) | 0.05 to 0.5 µM |
| COc1cccc(CC(=O)N2CCCC2C(N)c2ccc(C(=O)Nc3ccncc3)cc2)c1 (stereo unspecified) | 0.5 to 5 µM |
| Cc1ccccc1NC(=O)NCC(N)c1ccc(C(=O)Nc2ccncc2)cc1 (stereo unspecified) | 0.05 to 0.5 µM |
| CN(CC(N)c1ccc(C(=O)Nc2ccncc2)cc1)C(=O)C1CCSc2ccc(F)cc21 (stereo unspecified) | 5 to 50 µM |
| COc1ccc(CCNC(=O)CC(N)c2ccc(C(=O)Nc3ccncc3)cc2)cc1OC (stereo unspecified) | 0.5 to 5 µM |
| NC(c1ccc(C(=O)Nc2ccncc2)cc1)C1CCCN1C(=O)Cc1csc(-c2ccccc2)n1 (stereo unspecified) | 0.5 to 5 µM |
| NC(CNC(=O)Nc1ccc(Cl)cc1)c1ccc(C(=O)Nc2ccncc2)cc1 (stereo unspecified) | 0.05 to 0.5 µM |
| CN(CC(N)c1ccc(C(=O)Nc2ccncc2)cc1)C(=O)C1CCSc2ccccc21 (stereo unspecified) | 5 to 50 µM |
| CN(CC(N)c1ccc(C(=O)Nc2ccncc2)cc1)C(=O)Cc1cccc(F)c1 (stereo unspecified) | 0.5 to 5 µM |
| COc1ccccc1CC(=O)N1CCCC1C(N)c1ccc(C(=O)Nc2ccncc2)cc1 (stereo unspecified) | 0.5 to 5 µM |
| NC(CNC(=O)C1CCc2ccccc2C1)c1ccc(C(=O)Nc2ccncc2)cc1 (stereo unspecified) | 0.5 to 5 µM |
| NC(CNC(=S)Nc1ccc(OC(F)(F)F)cc1)c1ccc(C(=O)Nc2ccncc2)cc1 (stereo unspecified) | 0.5 to 5 µM |
| NC(CC(=O)Nc1ccc(CO)cc1)c1ccc(C(=O)Nc2ccncc2)cc1 (stereo unspecified) | 0.05 to 0.5 µM |
| N[C@@H](CNC(=O)C1(c2ccc(F)cc2)CCCC1)c1ccc(C(=O)Nc2ccncc2)cc1 | 0.5 to 5 µM |
| CC(NC(=O)CC(N)c1ccc(C(=O)Nc2ccncc2)cc1)c1cccc2ccccc12 (stereo unspecified) | 0.05 to 0.5 µM |
| NC(CC(=O)NCc1ccccc1Br)c1ccc(C(=O)Nc2ccncc2)cc1 (stereo unspecified) | 0.05 to 0.5 µM |
| CN(CC(N)c1ccc(C(=O)Nc2ccncc2)cc1)C(=O)C(C)(C)c1cccs1 (stereo unspecified) | 0.5 to 5 µM |
| Cc1cc(Cl)ccc1OC(C)C(=O)NCC(N)c1ccc(C(=O)Nc2ccncc2)cc1 (stereo unspecified) | 0.05 to 0.5 µM |
| NC(CNC(=O)C1CCCC1)c1ccc(C(=O)Nc2ccncc2)cc1 (stereo unspecified) | 0.5 to 5 µM |
| CN(CC(N)c1ccc(C(=O)Nc2ccncc2)cc1)C(=O)Cc1ccc(C(F)(F)F)cc1 (stereo unspecified) | 0.5 to 5 µM |
| NC(c1ccc(C(=O)Nc2ccncc2)cc1)C1CCCN1C(=O)C1(c2ccc(Cl)cc2Cl)CC1 (stereo unspecified) | 0.5 to 5 µM |
| NC(c1ccc(C(=O)Nc2ccncc2)cc1)C1CCCN1C(=O)C1(c2ccc(Cl)cc2)CCC1 (stereo unspecified) | 0.5 to 5 µM |

| Structure (SMILES) | IC50 |
| --- | --- |
| NC(CNC(=O)C1(c2ccc(Cl)c(Cl)c2)CCC1)c1ccc(C(=O)Nc2ccncc2)cc1 (stereo unspecified) | 0.05 to 0.5 µM |
| NC(CNC(=O)CC1CC1)c1ccc(C(=O)Nc2ccncc2)cc1 (stereo unspecified) | 0.5 to 5 µM |
| Cc1ccc(CC(=O)N(C)CC(N)c2ccc(C(=O)Nc3ccncc3)cc2)cc1 (stereo unspecified) | 0.5 to 5 µM |
| N[C@H](CC(=O)NCc1ccc(F)cc1)c1ccc(C(=O)Nc2ccncc2)cc1 | 0.05 to 0.5 µM |
| CN(CC(N)c1ccc(C(=O)Nc2ccncc2)cc1)C(=O)C1(c2ccc(F)c(F)c2)CCC1 (stereo unspecified) | 0.5 to 5 µM |
| COc1ccc(CC(=O)N(C)CC(N)c2ccc(C(=O)Nc3ccncc3)cc2)c(OC)c1OC (stereo unspecified) | 5 to 50 µM |
| COc1ccc(NC(=O)NCC(N)c2ccc(C(=O)Nc3ccncc3)cc2)cc1 (stereo unspecified) | 0.05 to 0.5 µM |
| NC(c1ccc(C(=O)Nc2ccncc2)cc1)C1CCCN1C(=O)Cc1ccc2ccccc2c1 (stereo unspecified) | 0.5 to 5 µM |
| N[C@H](CC(=O)NC1COc2ccccc21)c1ccc(C(=O)Nc2ccncc2)cc1 (stereo partly specified) | < 0.05 µM |
| Cc1cccc(CC(=O)N2CCCC2C(N)c2ccc(C(=O)Nc3ccncc3)cc2)c1 (stereo unspecified) | 0.5 to 5 µM |
| CN(CC(N)c1ccc(C(=O)Nc2ccncc2)cc1)C(=O)Cc1ccc(F)cc1F (stereo unspecified) | 0.5 to 5 µM |
| NC(CNC(=O)C1CCOc2ccc(F)cc21)c1ccc(C(=O)Nc2ccncc2)cc1 (stereo unspecified) | 0.05 to 0.5 µM |
| COc1ccc(CC(=O)N2CCCC2C(N)c2ccc(C(=O)Nc3ccncc3)cc2)cc1F (stereo unspecified) | 0.5 to 5 µM |
| CN(CC(N)c1ccc(C(=O)Nc2ccncc2)cc1)C(=O)Cc1ccc(F)cc1Cl (stereo unspecified) | 0.5 to 5 µM |
| NC(CNC(=O)Cc1ccc(F)cc1)c1ccc(C(=O)Nc2ccncc2)cc1 (stereo unspecified) | 0.05 to 0.5 µM |
| CCOc1ccccc1CCNC(=O)CC(N)c1ccc(C(=O)Nc2ccncc2)cc1 (stereo unspecified) | 0.05 to 0.5 µM |
| N[C@@H](CC(=O)NC1COc2ccccc21)c1ccc(C(=O)Nc2ccncc2)cc1 (stereo partly specified) | 0.05 to 0.5 µM |
| NC(CC(=O)NCCc1cccs1)c1ccc(C(=O)Nc2ccncc2)cc1 (stereo unspecified) | 0.05 to 0.5 µM |
| COc1cccc(CCNC(=O)CC(N)c2ccc(C(=O)Nc3ccncc3)cc2)c1 (stereo unspecified) | 0.05 to 0.5 µM |
| CN(CC(N)c1ccc(C(=O)Nc2ccncc2)cc1)C(=O)C1(c2ccc(F)c(Cl)c2)CC1 (stereo unspecified) | 0.5 to 5 µM |
| NC(CNC(=O)C1(c2ccc(F)cc2)CC1)c1ccc(C(=O)Nc2ccncc2)cc1 (stereo unspecified) | < 0.2 µM |
| CN(CC(N)c1ccc(C(=O)Nc2ccncc2)cc1)C(=O)Cc1cccc(F)c1F (stereo unspecified) | 0.5 to 5 µM |
| NC(c1ccc(C(=O)Nc2ccncc2)cc1)C1CCCN1C(=O)C1(c2ccc(F)cc2Cl)CC1 (stereo unspecified) | 0.5 to 5 µM |

Reference: the Kinase Knowledgebase extract (Sharma et al. 2016)
